{"source": "patent US10022459B2", "about": "“Medical tissue-marker and manufacturing method for the same” (NATIONAL UNIVERSITY CORPORATION CHIBA UNIVERSITY, priority 2011, dated 2018)", "key": {"[1]": {"system": "submucosal layer of the stomach wall of a pig", "experiment": "Local injection into submucosal layer of the stomach wall of a pig, fluorescent laparoscope view from the outside of the stomach", "format": "in vivo", "experimental": "Then, the fabricated clusters were injected into biological tissue and the result thereof was confirmed. Specifically, submucosal layer of the stomach wall of a pig was a most suitable target of the marker administration. The fluid dispersion of 300 μl, including the clusters, was administrated on four points surrounding a metal clip placed inside the stomach by local injection.\nThe left and middle panels show conventional and fluorescent laparoscopic images immediately after local injection, respectively. […] It was confirmed that the clusters were sufficiently stable at the injection points. […] In this case, the exact injection positions were unclear immediately after injection as well as 6 hours after injection.\nHerein, the stability was again confirmed 24 hours after the local injection of the marker. The submucosal layer of the stomach wall was a most suitable target of the marker administration. The fluid dispersion of 300 μl including clusters was administrated at two points surrounding a metal clip by local injection. The pig recovered from general anesthesia after the administration. Twenty-four hours later, laparoscopy was performed again under general anesthesia.\nThe optimum injection amount of the marker was verified. When the concentration of the clusters according to the example 1 was 100 μl or more, the injection points could be confirmed. The concentration thereof was preferably 200 μl or more, and is more preferably 300 μl or more. In FIG. 17, 50 μl was used. In FIG. 18, 100 μl was used. In FIG. 19, 200 μl was used. In FIG. 20, 300 μl was used."}, "[2]": {"system": "stomach of the pig", "experiment": "Fluorescence imaging (near-infrared LED light) of the excised pig stomach after marker administration", "format": "in vivo", "settings": "32 hours after administration, 300 μl each at four points", "experimental": "Then, the stomach of the pig was excised, and fluorescence and X-ray CT imaging was performed 32 hours after the marker (300 μl each at four points around a metal clip) administration."}}}
{"smiles": "CC1(C)C(/C=C/C=C/C=C/C=C2\\N(CCCCS(=O)(=O)O)c3ccc4ccccc4c3C2(C)C)=[N+](CCCCS(=O)(=O)[O-])c2ccc3ccccc3c21", "note": "[ICG aqueous solution, indocyanine green]", "values": [{"measurement": "identification of injection points in fluorescent laparoscopic image", "setting": "[1]; 6 hours after local injection, 300 μl at four points", "result": "unclear"}, {"measurement": "distinguishability of four closely located injection points by fluorescent laparoscope", "setting": "[1]; 18 hours after administration, 300 μl at four points", "result": "impossible to distinguish"}, {"measurement": "identification of injection points in fluorescent laparoscopic image", "setting": "[1]; immediately after local injection", "result": "unclear"}, {"measurement": "fluorescence pattern at the injection site", "setting": "[2]", "result": "broad diffusion of the fluorescence"}]}
